Results from patent publication US9796711B2, “Substituted pyrazolo[3,4-b]pyridin-6-carboxylic acids and method of use” (AbbVie S.àr.l., priority 2015, dated 2017).

Tests used:
ΔF508-CFTR [1] = molecular target: T1, ΔF508-CFTR (Homo sapiens, UniProt P13569, DEL508-508); experiment: CFTR cell surface levels using HRP-tagged ΔF508-CFTR expressing CFBE cells, in the presence of a co-corrector; type: cell-based; settings: HRP-tagged ΔF508-CFTR expressing CFBE cells, in the presence of 3 μM co-corrector; for EC50: read-out: EC50
T1 construct: host or cells: CFBE41o-, doxycycline-inducible
Summary of the method: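 Cells were seeded with 0.5 μg/mL doxycycline and held 68 h at 37 °C. Test compounds plus 3 μM co-corrector (final 0.1% DMSO) were then added for 20 h at 33 °C. Washed cells received HRP substrate, and luminescence was normalized between DMSO and 3 μM co-corrector controls.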

ΔF508-CFTR [2] = molecular target: T1, ΔF508-CFTR; experiment: CFTR cell surface levels using HRP-tagged ΔF508-CFTR expressing CFBE cells, intrinsic corrector capacity; type: cell-based; settings: for EC50: read-out: EC50
Summary of the method: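 Here the cells express ΔF508-CFTR with horseradish peroxidase inserted in extracellular loop 4, so only rescued channel at the surface gives luminescent signal. Compounds act on their own, 20 h at the reduced temperature of 33 °C; values are percent activity relative to DMSO and a 3 μM corrector.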

[3] = HRP-tagged ΔF508-CFTR expressing CFBE cells, intrinsic corrector capacity (no co-corrector), 33° C., 20 hours
[4] = HRP-tagged ΔF508-CFTR CFBE41o- cells, compounds alone (intrinsic corrector capacity), 20 hours at 33° C., positive control 3 μM corrector
[5] = HRP-tagged ΔF508-CFTR CFBE41o- cells, compounds alone (intrinsic corrector capacity), 20 hours at 33° C.

T1 sequence (P13569 with tags, fused parts or gaps DEL508-508): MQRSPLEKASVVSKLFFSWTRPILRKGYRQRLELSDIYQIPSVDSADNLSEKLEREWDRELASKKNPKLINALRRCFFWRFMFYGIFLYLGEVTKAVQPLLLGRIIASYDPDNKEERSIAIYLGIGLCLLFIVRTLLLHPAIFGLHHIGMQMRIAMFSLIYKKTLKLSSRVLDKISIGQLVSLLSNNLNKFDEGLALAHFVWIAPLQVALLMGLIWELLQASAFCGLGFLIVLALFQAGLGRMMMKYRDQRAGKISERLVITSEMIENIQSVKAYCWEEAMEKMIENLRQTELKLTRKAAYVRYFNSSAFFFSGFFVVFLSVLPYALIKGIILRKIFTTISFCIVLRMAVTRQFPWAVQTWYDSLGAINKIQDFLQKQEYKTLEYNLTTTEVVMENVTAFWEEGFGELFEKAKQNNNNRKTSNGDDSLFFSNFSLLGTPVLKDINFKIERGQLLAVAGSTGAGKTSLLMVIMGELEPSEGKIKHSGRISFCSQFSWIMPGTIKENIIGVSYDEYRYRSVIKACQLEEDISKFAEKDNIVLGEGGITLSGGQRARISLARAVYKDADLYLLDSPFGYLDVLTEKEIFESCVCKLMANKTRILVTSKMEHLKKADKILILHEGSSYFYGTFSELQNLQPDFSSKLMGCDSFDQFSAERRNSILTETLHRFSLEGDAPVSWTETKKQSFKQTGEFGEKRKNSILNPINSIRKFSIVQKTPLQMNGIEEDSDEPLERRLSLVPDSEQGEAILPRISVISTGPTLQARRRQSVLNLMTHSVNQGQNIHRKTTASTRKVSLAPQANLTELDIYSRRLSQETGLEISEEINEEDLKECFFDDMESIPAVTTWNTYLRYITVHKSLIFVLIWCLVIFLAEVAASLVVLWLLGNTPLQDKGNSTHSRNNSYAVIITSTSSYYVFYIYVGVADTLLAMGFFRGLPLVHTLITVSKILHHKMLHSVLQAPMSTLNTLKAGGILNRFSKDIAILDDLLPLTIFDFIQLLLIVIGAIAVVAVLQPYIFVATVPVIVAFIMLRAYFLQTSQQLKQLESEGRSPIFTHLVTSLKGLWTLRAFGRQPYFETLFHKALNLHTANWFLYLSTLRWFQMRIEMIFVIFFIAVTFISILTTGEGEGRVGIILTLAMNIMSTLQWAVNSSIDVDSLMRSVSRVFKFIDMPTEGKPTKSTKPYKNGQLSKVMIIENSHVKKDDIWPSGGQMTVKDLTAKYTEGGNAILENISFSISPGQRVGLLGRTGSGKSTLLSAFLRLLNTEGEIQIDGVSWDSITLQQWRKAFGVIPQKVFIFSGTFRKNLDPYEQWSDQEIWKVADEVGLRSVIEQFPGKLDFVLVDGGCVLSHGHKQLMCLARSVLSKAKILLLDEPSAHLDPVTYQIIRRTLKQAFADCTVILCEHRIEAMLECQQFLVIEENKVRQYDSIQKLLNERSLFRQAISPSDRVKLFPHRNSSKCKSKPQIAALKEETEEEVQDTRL

What does the source list for `CCOCC(=O)N1CCN(c2cc(C(=O)O)nc3c2c(C(C)C)nn3-c2ccc(F)cc2)CC1` [compound 775, 4-[4-(ethoxyacetyl)piperazin-1-yl]-1-(4-fluorophenyl)-3-(propan-2-yl)-1H-pyrazolo[3,4-b]pyridine-6-carboxylic acid]?
% Activation (ΔF508-CFTR [1]): 262.4%; EC50 (ΔF508-CFTR [1]): 1670 nM; % Activation (ΔF508-CFTR [2]; [3]): 93.07%; EC50 (ΔF508-CFTR [2]; [3]): 1670 nM

Which “% Activation” value (ΔF508-CFTR [1]) does the source give for `CC(c1ccc(-c2cc(C(=O)O)nc3c2c(C2CCC2)nn3C2CCCCC2)cc1)N1CCOCC1` (stereo not drawn) [compound 866, 3-cyclobutyl-1-cyclohexyl-4-{4-[1-(morpholin-4-yl)ethyl]phenyl}-1H-pyrazolo[3,4-b]pyridine-6-carboxylic acid] here?
The value was 298.3%.

What about the EC50 (ΔF508-CFTR [1]) of the same compound?
The EC50 was 151 nM.

And the “% Activation” value (ΔF508-CFTR [2]; [3])?
The value was 99.71%.

And the EC50 (ΔF508-CFTR [2]; [3])?
The EC50 was 277 nM.

With `Cc1nn(-c2ccccc2)c2nc(C(=O)O)cc(-c3ccc(N4CCC(F)(F)C4)cc3)c12` [compound 111, 4-[4-(3,3-difluoropyrrolidin-1-yl)phenyl]-3-methyl-1-phenyl-1H-pyrazolo[3,4-b]pyridine-6-carboxylic acid] as the compound, how does the “% Activation” value (ΔF508-CFTR [1]) read?
Its value is 299.8%.

What about the EC50 (ΔF508-CFTR [1]) of the same compound?
The EC50 was 424 nM.

And the “% Activation” value (ΔF508-CFTR [2]; [4])?
The value was 110.34%.

What about the EC50 (ΔF508-CFTR [2]; [5]) of the same compound?
Its EC50 is 459 nM.

With `CC(C)(C)c1nn(C2CCCCC2)c2nc(C(=O)O)cc(-c3cnc(N4CCOCC4)nc3)c12` [compound 149, 3-tert-butyl-1-cyclohexyl-4-[2-(morpholin-4-yl)pyrimidin-5-yl]-1H-pyrazolo[3,4-b]pyridine-6-carboxylic acid] as the compound, how does the “% Activation” value (ΔF508-CFTR [1]) read?
The value was 296%.

And the EC50 (ΔF508-CFTR [1])?
Its EC50 is 449 nM.

What about the “% Activation” value (ΔF508-CFTR [2]; [4]) of the same compound?
The value was 112.95%.

What about the EC50 (ΔF508-CFTR [2]; [5]) of the same compound?
Its EC50 is 653 nM.

For `O=C(O)c1cc(N2C[C@@H](F)C[C@@H]2CO)c2c(C3CCC3)nn(-c3ccccc3)c2n1` [compound 514, 3-cyclobutyl-4-[(2R,4S)-4-fluoro-2-(hydroxymethyl)pyrrolidin-1-yl]-1-phenyl-1H-pyrazolo[3,4-b]pyridine-6-carboxylic acid], which “% Activation” value (ΔF508-CFTR [1]) is on record?
The value was 178.2%.

And the EC50 (ΔF508-CFTR [1])?
Its EC50 is 3330 nM.

What about the “% Activation” value (ΔF508-CFTR [2]; [3]) of the same compound?
Its value is 37.34%.

And the EC50 (ΔF508-CFTR [2]; [3])?
The EC50 was 3340 nM.

`O=C(O)c1cc(N2CCN(CCCO)CC2)c2c(C3CCC3)nn(-c3ccccc3)c2n1` [compound 471, 3-cyclobutyl-4-[4-(3-hydroxypropyl)piperazin-1-yl]-1-phenyl-1H-pyrazolo[3 ,4-b]pyridine-6-carboxylic acid] was tested. Which “% Activation” value (ΔF508-CFTR [1]) did it give?
Its value is 259.9%.

And the EC50 (ΔF508-CFTR [1])?
The EC50 was 2990 nM.

And the “% Activation” value (ΔF508-CFTR [2]; [3])?
Its value is 106.45%.

And the EC50 (ΔF508-CFTR [2]; [3])?
Its EC50 is 3340 nM.

How did the “% Activation” value (ΔF508-CFTR [1]) turn out when `Cc1nn(-c2ccccc2)c2nc(C(=O)O)cc(-c3ccc(N4CC5CCC(C4)O5)cc3)c12` [compound 134, 3-methyl-4-[4-(8-oxa-3-azabicyclo[3.2.1]octan-3-yl)phenyl]-1-phenyl-1H-pyrazolo[3,4-b]pyridine-6-carboxylic acid] was run?
The value was 362.2%.

What about the EC50 (ΔF508-CFTR [1]) of the same compound?
The EC50 was 556 nM.

And the “% Activation” value (ΔF508-CFTR [2]; [4])?
The value was 153.25%.

And the EC50 (ΔF508-CFTR [2]; [5])?
The EC50 was 982 nM.

With `CC(C)c1nn(-c2ccc(F)cc2)c2nc(C(=O)O)cc(N3CCCN(C(C)C)CC3)c12` [compound 795, 1-(4-fluorophenyl)-3-(propan-2-yl)-4-[4-(propan-2-yl)-1,4-diazepan-1-yl]-1H-pyrazolo[3,4-b]pyridine-6-carboxylic acid] as the compound, how does the “% Activation” value (ΔF508-CFTR [1]) read?
The value was 175.3%.

What about the EC50 (ΔF508-CFTR [1]) of the same compound?
The EC50 was 1670 nM.

And the “% Activation” value (ΔF508-CFTR [2]; [3])?
The value was 47.22%.

What about the EC50 (ΔF508-CFTR [2]; [3]) of the same compound?
Its EC50 is 1670 nM.

How did the “% Activation” value (ΔF508-CFTR [1]) turn out when `CC(C)c1nn(-c2cccc(N3CC(F)C3)c2)c2nc(C(=O)O)cc(-c3ccc(N4CCOCC4)cc3)c12` [compound 167, 1-[3-(3-fluoroazetidin-1-yl)phenyl]-4-[4-(morpholin-4-yl)phenyl]-3-(propan-2-yl)-1H-pyrazolo[3,4-b]pyridine-6-carboxylic acid] was run?
Its value is 568.2%.

And the EC50 (ΔF508-CFTR [1])?
The EC50 was 535 nM.

What about the “% Activation” value (ΔF508-CFTR [2]; [4]) of the same compound?
Its value is 301.1%.

And the EC50 (ΔF508-CFTR [2]; [5])?
Its EC50 is 596 nM.

With `CC(C)c1nn(-c2cccc(N(C)C)c2)c2nc(C(=O)O)cc(OCC3CCOCC3)c12` [compound 602, 1-[3-(dimethylamino)phenyl]-4-[(oxan-4-yl)methoxy]-3-(propan-2-yl)-1H-pyrazolo[3,4-b]pyridine-6-carboxylic acid] as the compound, how does the “% Activation” value (ΔF508-CFTR [1]) read?
The value was 393.4%.

What about the EC50 (ΔF508-CFTR [1]) of the same compound?
The EC50 was 134 nM.

What about the “% Activation” value (ΔF508-CFTR [2]; [3]) of the same compound?
The value was 159.3%.

What about the EC50 (ΔF508-CFTR [2]; [3]) of the same compound?
The EC50 was 256 nM.

How did the “% Activation” value (ΔF508-CFTR [1]) turn out when `CC(C)c1nn(-c2cccc(N(C)C)c2)c2nc(C(=O)O)cc(-c3ccc(N(C)C4CCOCC4)nc3)c12` [compound 189, 1-[3-(dimethylamino)phenyl]-4-{6-[methyl(oxan-4-yl)amino]pyridin-3-yl}-3-(propan-2-yl)-1H-pyrazolo[3,4-b]pyridine-6-carboxylic acid] was run?
Its value is 590.78%.

What about the EC50 (ΔF508-CFTR [1]) of the same compound?
The EC50 was 292 nM.

What about the “% Activation” value (ΔF508-CFTR [2]; [4]) of the same compound?
Its value is 385.02%.

And the EC50 (ΔF508-CFTR [2]; [5])?
The EC50 was 514 nM.

How did the “% Activation” value (ΔF508-CFTR [1]) turn out when `Cc1nn(-c2ccccc2)c2nc(C(=O)O)cc(-c3ccc(N4CCN(C(C)(C)C)CC4)cc3)c12` [compound 60, 4-[4-(4-tert-butylpiperazin-1-yl)phenyl]-3-methyl-1-phenyl-1H-pyrazolo[3,4-b]pyridine-6-carboxylic acid] was run?
Its value is 143.1%.

And the EC50 (ΔF508-CFTR [1])?
The EC50 was greater than 10000 nM.

And the “% Activation” value (ΔF508-CFTR [2]; [4])?
The value was 14.9%.

And the EC50 (ΔF508-CFTR [2]; [5])?
The EC50 was greater than 10000 nM.

`COC1CCN(c2cc(C(=O)O)nc3c2c(C(C)C)nn3-c2ccc(F)cc2)CC1` [compound 393, 1-(4-fluorophenyl)-4-(4-methoxypiperidin-1-yl)-3-(propan-2-yl)-1H-pyrazolo[3,4-b]pyridine-6-carboxylic acid] was tested. Which “% Activation” value (ΔF508-CFTR [1]) did it give?
Its value is 454.3%.

And the EC50 (ΔF508-CFTR [1])?
Its EC50 is 314 nM.

And the “% Activation” value (ΔF508-CFTR [2]; [4])?
The value was 258.8%.

And the EC50 (ΔF508-CFTR [2]; [5])?
The EC50 was 558 nM.

What does the source list for `Cc1nn(-c2ccccc2)c2nc(C(=O)O)cc(-c3ccc(N4CC[C@H](C#N)C4)cc3)c12` [compound 155, 4-{4-[(3S)-3-cyanopyrrolidin-1-yl]phenyl}-3-methyl-1-phenyl-1H-pyrazolo[3,4-b]pyridine-6-carboxylic acid]?
% Activation (ΔF508-CFTR [1]): 399.6%; EC50 (ΔF508-CFTR [1]): 909 nM; % Activation (ΔF508-CFTR [2]; [4]): 203.65%; EC50 (ΔF508-CFTR [2]; [5]): 1350 nM

Which results are given for `O=C(O)c1cc(N2CCN(CCCN3CCOCC3)CC2)c2c(C3CCC3)nn(-c3ccccc3)c2n1` [compound 558, 3-cyclobutyl-4-{4-[3-(morpholin-4-yl)propyl]piperazin-1-yl}-1-phenyl-1H-pyrazolo[3,4-b]pyridine-6-carboxylic acid]?
% Activation (ΔF508-CFTR [1]): 322.5%; EC50 (ΔF508-CFTR [1]): 778 nM; % Activation (ΔF508-CFTR [2]; [3]): 121.3%; EC50 (ΔF508-CFTR [2]; [3]): 1370 nM

What does the source list for `CC(C)c1nn(-c2cncc(N3CCOCC3)c2)c2nc(C(=O)O)cc(-c3ccc(N4CCOCC4)cc3)c12` [compound 211, 4-[4-(morpholin-4-yl)phenyl]-1-[5-(morpholin-4-yl)pyridin-3-yl]-3-(propan-2-yl)-1H-pyrazolo[3,4-b]pyridine-6-carboxylic acid]?
% Activation (ΔF508-CFTR [1]): 289.75%; EC50 (ΔF508-CFTR [1]): 1090 nM; % Activation (ΔF508-CFTR [2]; [4]): 94.07%; EC50 (ΔF508-CFTR [2]; [5]): 2170 nM

Which results are given for `CCCN1CCCN(c2cc(C(=O)O)nc3c2c(C(C)C)nn3-c2ccc(F)cc2)CC1` [compound 766, 1-(4-fluorophenyl)-3-(propan-2-yl)-4-(4-propyl-1,4-diazepan-1-yl)-1H-pyrazolo[3,4-b]pyridine-6-carboxylic acid]?
% Activation (ΔF508-CFTR [1]): 213.4%; EC50 (ΔF508-CFTR [1]): 1180 nM; % Activation (ΔF508-CFTR [2]; [3]): 54.3%; EC50 (ΔF508-CFTR [2]; [3]): 1670 nM

`Cc1nn(-c2cccc(N3CCOCC3)c2)c2nc(C(=O)O)cc(-c3ccc(N4CCOCC4)cc3)c12` [compound 32, 3-methyl-1-[3-(morpholin-4-yl)phenyl]-4-[4-(morpholin-4-yl)phenyl]-1H-pyrazolo[3,4-b]pyridine-6-carboxylic acid] was tested. Which “% Activation” value (ΔF508-CFTR [1]) did it give?
The value was 399.6%.

And the EC50 (ΔF508-CFTR [1])?
Its EC50 is 1390 nM.

And the “% Activation” value (ΔF508-CFTR [2]; [4])?
Its value is 176.7%.

And the EC50 (ΔF508-CFTR [2]; [5])?
The EC50 was 638 nM.
